Article PMC6761804 (ACS Omega, 2019)

System: colorectal tumor of Apc^min/+ genetically engineered CRC mouse
Type: in vivo, Apc^min/+ mice
Settings: i.v. about 3.7 MBq, PET/CT after 1 h (Figure S4)

OC[C@H]1OC(O)[C@H](F)[C@@H](O)[C@@H]1O (stereo partly shown) [^18F-FDG, ^18F-Fluorodeoxyglucose, reference compound]
Tumor enrichment in PET/CT (in words): did not show ideal tumor enrichment
